The text below walks through data of US7794753B2, “Synergistic hepatoprotective composition and a method thereof” (Council of Scientific and Industrial Research, priority 2003, dated 2010).

In data set [1] the test system is Paracetamol (APAP) induced hepatic injury. It is filed as in vivo. To be noted: prophylactic. As for the experimental part: […] Formulation is extremely safe having a therapeutic index of >40. No mortality was recorded up to a dose of 2 g-kg-1 p.o. in mice.
For data set [2] the following is noted: After 72 hrs, mostly by urinary excretion; cited from earlier work.
The subject of data set [3] is restinosis following Angio plasty. The conditions noted are these: animal model, compared with fish oil; cited from earlier work.
Data set [4] concerns Acetaminophen (APAP) induced hepatic injury. Put plainly: Hepatoprotective activity (in vivo) of TCA and silymarin (Pre-treatment), diethyl-ether plus Acetaminophen (APAP) (prophylactic study). Also noted: species or system Mice: Swiss albino. The conditions noted are these: 50 mg/kg p.o. fed at 72 h, 48 h, 24 h, 1 h before diethyl-ether and 1 h after APAP 200 mg/kg i.p.
Data set [5] deals with paracetamol (APAP) induced hepatic injury. Put plainly: Hepatoprotective activity (in vivo) of synergistic formulation and Silymarin against paracetamol (APAP) induced hepatic injury in mice (prophylactic study). To be noted: 50 mg/kg p.o. + APAP. As to the method: All the list materials were administered P.O. routes in a uniform dose level of 50 mg kg-1. Formulation is extremely safe having a therapeutic index of >40. No mortality was recorded up to a dose of 2 g-kg-1 p.o. in mice.

For the compound `C=C1CC[C@@H]2[C@](C)(CO)[C@H](O)CC[C@@]2(C)[C@@H]1C/C=C1/C(=O)OC[C@H]1O` [AP, andrographolide], the “Hepatic GSH (glutathione)” value in data set [1] (50 mg kg−1 + APAP) is recorded as 4.48 ± 0.25 μmole GSH/g liver. The “Serum TG, percent hepatoprotective activity (in parentheses)” value in data set [1] (100 mg kg−1 + APAP) is given as “(63.00) %”. Also, the excreted in data set [2] was about 90%. Besides, the “preventing the incidence and severity of restinosis following Angio plasty” value in data set [3] is reported as “twice as effective as fish oil”.

`CCCCCCCC/C=C/CCCCCCCCCCCCCC(=O)O` [TCA, trans-tetracos-15-enoic acid]: the “Serum Bilirubin, percent hepatoprotective activity” value in data set [4] stood at 56.35%. The “S. Albumin, percent hepatoprotective activity” value in data set [5] worked out at 56.35%.
